Assay: Comparison of solubility: time required for complete dissolution of solid forms in pH 5.0 buffer
Format: physicochemical
Conditions: 25 mM potassium acetate buffer solution (pH 5.0), room temperature, concentration of 5 mg/mL, shaken at about 100 rpm
Procedure: (Comparison of Solubility)
Next, the length of time required to dissolve about […] of the solid forms of formula (I) compound at room temperature in a pH 5.0 acetic acid buffer solution were measured.
After adding, at room temperature, a 25 mM potassium acetate buffer solution (pH 5.0) to, respectively, 10 mg of the white crystals prepared in Example 7, 10 mg of the amorphous powder prepared in Example 10, and 5 mg of the amorphous mass prepared in Example 11 in order to make a concentration of 5 mg/mL in each sample, the length of time required for complete dissolution under shaken at about 100 rpm was measured.

Compound | time required for dissolution
CCC(O)C(C)C1OC1CC(C)(O)/C=C/C=C(\C)C1OC(=O)CC(O)CCC(C)(O)C(OC(=O)N2CCN(C3CCCCCC3)CC2)/C=C/C1C (stereo not drawn) [Crystals, (8E,12E,14E)-7-{(4-cycloheptylpiperazin-1-yl)carbonyl}oxy-3,6,16,21-tetrahydroxy-6,10,12,16,20-pentamethyl-18,19-epoxytricosa-8,12,14-trien-11-olide] | about 32 seconds
CCC(O)C(C)C1OC1CC(C)(O)/C=C/C=C(\C)C1OC(=O)CC(O)CCC(C)(O)C(OC(=O)N2CCN(C3CCCCCC3)CC2)/C=C/C1C (stereo not drawn) [Amorphous powder, (8E,12E,14E)-7-{(4-cycloheptylpiperazin-1-yl)carbonyl}oxy-3,6,16,21-tetrahydroxy-6,10,12,16,20-pentamethyl-18,19-epoxytricosa-8,12,14-trien-11-olide] | about 10 seconds
CCC(O)C(C)C1OC1CC(C)(O)/C=C/C=C(\C)C1OC(=O)CC(O)CCC(C)(O)C(OC(=O)N2CCN(C3CCCCCC3)CC2)/C=C/C1C (stereo not drawn) [Amorphous mass, (8E,12E,14E)-7-{(4-cycloheptylpiperazin-1-yl)carbonyl}oxy-3,6,16,21-tetrahydroxy-6,10,12,16,20-pentamethyl-18,19-epoxytricosa-8,12,14-trien-11-olide] | about 215 seconds

From patent publication US7790887B2, “Macrolide compound in solid form, process for preparation thereof, and pharmaceutical composition containing the same” (Eisai R&D Management Co., Ltd., priority 2007, dated 2010)
